# Measurements taken from US5635509A, “Piperidine derivatives useful as neurokinin antagonists” (Zeneca Limited, priority 1994, dated 1997).
# Structures can show the parent of a compound that is named as a salt.
# What was measured:
# [1] = target: T1, human NK2 receptor (Homo sapiens, UniProt P21452); assay: Neurokinin A (NKA) Receptor-binding Assay (Test A); settings: typically found
# T1 construct: expressed in transfected cells; host or cells: Mouse Erythroleukemia (MEL) cells
# T1 sequence (P21452 1-398): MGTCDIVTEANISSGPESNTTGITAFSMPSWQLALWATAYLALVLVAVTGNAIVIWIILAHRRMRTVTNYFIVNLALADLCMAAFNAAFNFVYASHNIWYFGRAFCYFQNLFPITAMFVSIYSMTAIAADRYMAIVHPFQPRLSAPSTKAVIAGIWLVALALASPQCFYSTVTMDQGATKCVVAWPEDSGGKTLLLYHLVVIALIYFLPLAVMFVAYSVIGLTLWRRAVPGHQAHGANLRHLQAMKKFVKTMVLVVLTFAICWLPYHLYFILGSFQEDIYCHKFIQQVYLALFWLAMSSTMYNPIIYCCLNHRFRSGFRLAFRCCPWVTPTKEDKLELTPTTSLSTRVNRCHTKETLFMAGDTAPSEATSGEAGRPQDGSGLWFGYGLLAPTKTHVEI
# Text: Neurokinin A (NKA) Receptor-binding Assay (Test A)
# [2] = target: T2, guinea pig trachea (Cavia porcellus, UniProt Q64077); assay: Guinea Pig Assay (Test B), functional assay in guinea pig trachea, antagonism of NKA or [β-ala8]-NKA(4-10) contraction; format: cell-based; settings: -log molar KB, agonist NKA or [β-ala8]-NKA(4-10), 30 min incubation
# T2 construct: The trachea are removed, trimmed of excess tissue and divided into two segments; from tissue; host or cells: guinea pig trachea rings
# T2 sequence (Q64077 1-402): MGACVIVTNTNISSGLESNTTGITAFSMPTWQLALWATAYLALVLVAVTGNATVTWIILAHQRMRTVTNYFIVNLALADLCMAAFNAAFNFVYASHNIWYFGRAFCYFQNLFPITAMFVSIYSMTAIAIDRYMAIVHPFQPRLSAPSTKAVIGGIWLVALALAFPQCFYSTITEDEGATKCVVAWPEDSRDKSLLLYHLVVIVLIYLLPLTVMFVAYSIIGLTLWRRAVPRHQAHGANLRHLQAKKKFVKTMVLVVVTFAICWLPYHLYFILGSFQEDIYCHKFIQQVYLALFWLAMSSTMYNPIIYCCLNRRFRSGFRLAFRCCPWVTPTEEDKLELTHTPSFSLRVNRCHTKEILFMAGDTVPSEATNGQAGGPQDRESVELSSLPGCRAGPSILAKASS
# Method: Guinea Pig Assay (Test B)
# The chosen agonist is refered to as AG throughout the description.
# Male guinea pigs are killed by a sharp blow to the back of the head. The trachea are removed, trimmed of excess tissue and divided into two segments. Each segment is suspended as a ring between stainless steel stirrups in water-jacketed (37.5° C.) tissue baths containing a physiological salt solution of the following composition (mM): NaCl, 119; KCl 4.6; CaCl2, 1.8; MgCl2, 0.5; NaH2 PO4, 1; NaHCO3, 25; glucose, 11; thiorphan, 0.001; and indomethacin, 0.005; gassed continuously with 95% O2 -%5 CO2. […] Contractile responses are measured on a Grass polygraph via Grass FT-03 force transducers.
# Tissues are challenged repetitively with a single concentration of AG (10 nM) with intervening 30 min periods with washing to allow the tension to return to baseline levels. […] Percent inhibition is determined when a Compound produces a statistically significant (p<0.05) reduction of the contraction and is calculated using the second contractile response as 100%.
# Potencies of selected Compounds are evaluated by calculating apparent dissociation constants (KB) for each concentration tested using the standard equation: […]
# where dose ratio=antilog[(AG -log molar EC50 without Compound)--(AG -log molar EC50 with Compound)]. The KB values may be converted to the negative logarithms and expressed as -log molar KB (i.e. pKB). […]
Structure (SMILES),Ki [1] [nM],Kb [2] [nM]
"O[C@@H](c1nccn1-c1ccccc1)[C@H](CCN1CCC(O)(c2ccccc2)CC1)c1ccc(Cl)c(Cl)c1 (racemic) [Example 2, 2-[(1RS,2RS)-2-(3,4-Dichlorophenyl)-1-hydroxy-4-(4-hydroxy-4-phenylpiperidino)butyl]-1-phenylimidazole Hydrochloride]",34,
"O=C(c1c[nH]nc1-c1ccccc1)C(CCN1CCC(O)(c2ccccc2)CC1)c1ccc(Cl)c(Cl)c1 (centres unmarked) [Example 3, 4-[2-(3,4-Dichlorophenyl)-4-(4-hydroxy-4-phenylpiperidino)butyroyl]-3-phenyl-1H-pyrazole]",,251
